The subject of data set [1] is semi-professional cyclists. The settings on record: single dose of 500 mg; cited from earlier work.
For data set [2], the system named is subjects with type II diabetes mellitus. The conditions noted are these: 500 mg daily for 6 weeks; cited from earlier work.
The conditions of data set [3]: cited from earlier work.
For data set [4] the following is noted: in vivo; cited from earlier work.
Data set [5] concerns rats with streptozocin-induced diabetes. The settings on record: 40 mg/kg for 30 days; cited from earlier work.
For data set [6], the system named is adult individuals with dysglycaemia (baseline blood glucose between 100 and 125 mg/dL). Put plainly: Clinical evaluation of the efficacy of the composition: double-blind, placebo-controlled pilot clinical study, 12 weeks. It is filed as in vivo, humans. On the procedure:
A single-centre, […], double-blind, placebo-controlled, pilot clinical study was conducted to evaluate the efficacy of the composition object of the present invention on humans in reducing insulin resistance-related risk factors. The study was carried out in accordance with the guidelines of the Helsinki Declaration and approved by the Ethics Committee of the Hospital. 100 adult individuals of both sexes were enrolled (47 women and 53 men, aged 20 to 75 years) with dysglycaemia (baseline blood glucose between 100 and 125 mg/dL on at least two consecutive occasions), in primary prevention for cardiovascular disease.
Exclusion criteria: dysglycaemia secondary to pathological or iatrogenic causes, systemic diseases associated with dysglycaemia, uncompensated dysthyroidism, treatment with drugs potentially interacting with glucose metabolism (for example corticosteroids, atypical antipsychotics).
The subjects enrolled were randomized into 5 groups, each consisting of 20 individuals: • Group A: 1 tablet of active (COMP) twice daily • Group B: 1 placebo tablet twice daily • Group C: 1 tablet of lemon extract 250 mg twice daily • Group D: 1 tablet of blood orange extract 100 mg twice daily • Group E: 1 tablet of chromium 100 mcg twice daily
All the enrolled subjects were subjected, 14 days prior to enrolment (T-14), to a pre-enrolment visit with blood tests to assess meeting the inclusion criteria. The individuals who met the TO inclusion criteria underwent a randomization visit at which the respective treatment was assigned and blood tests were performed in relation to the reference parameters.
The study lasted 12 weeks.
At the end of treatment (T12), the subjects were subjected to an end-of-study visit and blood tests.
The parameters investigated in the study are: Body mass index, systolic and diastolic blood pressure, glycated haemoglobin (HbAlc) fasting plasma glucose (FPG), fasting insulinemia (FPI), HOMA-index, triglycerides, gammaGT, creatinine phosphokinase (CPK).
The treatment called “active” or “COMPOSITION (COMP)” consists of a 570 mg tablet consisting of 250 mg lemon extract, 100 mg blood orange extract, 100 mcg chromium (as chromium picolinate), in addition to excipients such as calcium phosphate, magnesium stearate, silicon dioxide, hydroxypropyl cellulose, mono- and di-glycerides of fatty acids, microcrystalline cellulose, yellow iron oxide as a dye, coating agents. The treatment called “placebo” consists of a tablet equal in shape, weight, colour size and flavour to the active tablet but containing “inert” material for the desired effect and consists of: microcrystalline cellulose, magnesium stearate, silicon dioxide, calcium phosphate, chlorophylline dye, yellow iron oxide dye, coating agents.
The treatments related to groups C, D and E consist of one tablet equal in appearance to the tablets of groups A and B but consisting of the single active ingredient, as described above in addition to excipients.
The treatment tablets were packaged in anonymous white bottles, showing only the batch number consisting of an alphanumeric code and the expiration date. Neither the investigator nor the study subjects knew the contents of the bottles. The bottles of each treatment were placed in cardboard boxes containing a letter in a sealed envelope with reference to the batch number and content, to be opened only in case of need, as in cases of serious adverse events. After randomization, each study participant was given the bottle with 60 tablets for the specific treatment of the group to which they belonged.
All the subjects were instructed to take one tablet in the morning and one in the evening for 12 weeks.

For data set [7], the system named is incidence of diabetes. The settings on record: pharmacological treatment vs lifestyle changes (58%); cited from earlier work.
[8] abbreviates: 12-Week follow-up, 1 tablet twice daily.

Turning to `COc1ccc([C@@H]2CC(=O)c3c(O)cc(O[C@@H]4O[C@H](CO[C@@H]5O[C@@H](C)[C@H](O)[C@@H](O)[C@H]5O)[C@@H](O)[C@H](O)[C@H]4O)cc3O2)cc1O` [hesperidin, 3′,5,7-trihydroxy-4′-methoxy-flavanone-7-rhamnoglucoside], the “physical performance and oxidative stress” value in data set [1] was “improved physical performance and modulated oxidative stress”. In addition, the “inflammation and blood pressure” value in data set [2] is “reduced inflammation and blood pressure”. Also, in data set [3], the water solubility entry is “poor water solubility”. The bioavailability result in data set [4] is on record as “low bioavailability”. The “fasting glycaemia, insulinemia and glycated haemoglobin” value in data set [5] was “reduced fasting glycaemia, insulinemia and glycated haemoglobin”.
As to chromium picolinate, in data set [6] (setting [8]), the BMI worked out at 26.2 ± 1.0 kg/m2, the CPK was determined as 133 ± 22 U/L, the DBP amounted to 84 ± 4 mmHg and the FPG was determined as 112 ± 4 mg/dL. Besides, in data set [6] (setting [8]), the FPI was determined as 20.9 ± 1.1 μU/ml, the Gamma-GT is recorded as 27 ± 6 U/L, the HbA1c is listed as 6.4 ± 0.1% and the SBP came out at 130 ± 7 mmHg. The TG in data set [6] (setting [8]) is 152 ± 10 mg/dL. The compound further returned an HOMA-IR in data set [6] (12-Week follow-up, 1 tablet twice daily, HOMA-IR=(FPG*FPI)/405) of 5.7 ± 1.8. In data set [6] (Baseline), this compound yielded a BMI of 26.2 ± 1.0 kg/m2, a CPK of 134 ± 25 U/L, a DBP of 85 ± 6 mmHg and an FPG of 117 ± 5 mg/dL. In data set [6] (Baseline), this compound registered an FPI of 22.9 ± 1.0 μU/ml, a Gamma-GT of 24 ± 9 U/L, a HbA1c of 6.4 ± 0.3% and an SBP of 131 ± 5 mmHg. Further, the TG in data set [6] (Baseline) is recorded as 159 ± 12 mg/dL. Further, in data set [6] (Baseline, HOMA-IR=(FPG*FPI)/405), the HOMA-IR is 6.6 ± 1.2. Moreover, the “Observed efficacy rate (%), Reduction of FPG (−)” value in data set [6] (Chromium alone 100 mcg, Group E of example 7, 12 weeks) is on record as −4.2%. In data set [6] (after 12 weeks of treatment, with respect to baseline and placebo), the “reductions in HbAlc, FPG, FPI, HOMA-index, triglycerides (statistical significance)” value is recorded as “did not show statistically significant reductions”. In data set [6] (after 12 weeks vs baseline), the “reduction of fasting insulinemia (FPI)” value is given as 4%, the “reduction of fasting plasma glucose (FPG)” value was 4.2% and the “reduction of glycated haemoglobin (HbAlc)” value is reported as “did not achieve reductions”. In addition, the “reduction of HOMA index” value in data set [6] (after 12 weeks vs baseline, HOMA-IR=(FPG*FPI)/405) worked out at 13%.
For the compound `CN(C)C(=N)N=C(N)N` [metformin], in data set [7], the “reduction in the incidence of diabetes” value is 31%.

These data come from US20250114424A1, “PLANT EXTRACT-BASED COMPOSITION AND ITS USE FOR TREATING GLUCOSE METABOLISM DISORDERS” (ESSERRE PHARMA SRL, priority 2021, published 2025).
